{
  "source": "patent US11446287B2",
  "about": "“Compounds and methods for EP300 or CBP modulation and indications therefor” (Opna Immuno-Oncology SA, priority 2019, dated 2022)",
  "data": [
    {"target": "T1, Recombinant human CBP containing the bromodomain (CBP-BD (1043-1159)) (Homo sapiens, UniProt Q92793)", "T1 construct": "Recombinant human CBP bromodomain (CBP-BD (1043-1159)); made in house; host or cells: E. coli BL21-CodonPlus (DE3), modified pET vector", "T1 sequence (Q92793 1081-1197)": "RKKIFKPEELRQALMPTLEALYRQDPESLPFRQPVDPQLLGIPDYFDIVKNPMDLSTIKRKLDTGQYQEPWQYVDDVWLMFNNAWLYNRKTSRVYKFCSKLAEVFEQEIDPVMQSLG", "experiment": "CBP Alphascreen binding assay", "conditions": "read-out: CREBBP (CBP) IC50", "protocol": "CBP Alphascreen Binding Assay\nBinding of compounds of Formula (I) with CBP was assessed using Alphascreen™ binding assay. The inhibition of the interaction between the CBP bromodomain and its acetylated target protein was measured quantitatively using recombinant CBP, an acetylated Histone 3 peptide and AlphaScreen™ technology. In absence of inhibition of the CBP protein bound to AlphaScreen™ nickel chelate acceptor beads can interact with the acetylated Histone 3 peptide which was immobilized by the AlphaScreen™ Streptavidin coated beads. This interaction brings donor and acceptor beads in proximity. The close proximity allows the singlet oxygen produced by laser excitation of the donor beads to reach the acceptor beads and generate a luminescence signal. CBP inhibitors result in a decrease in the proximity signal through an inhibition of the CBP—acetylated peptide interaction.\nRecombinant human CBP containing the bromodomain (CBP-BD (1043-1159)) was prepared and purified as described in protein expression and purification session. The peptide was human Histone H345-64K56Ac-Biotin (Anaspec CA, USA).\nProtocol for CBP assay: All components are prepared in buffer composed of 50 mM HEPES pH 7.5, 50 mM NaCl, 0.01% BSA, 0.01% Triton X-100, 2 mM DTT. Test compounds and DMSO vehicle are diluted 1:50 in buffer and a 4 μL volume was transferred to an Alphaplate. 5.5 μL of CBP protein and 5.5 μL of peptide are added to wells containing 4 μL of various concentrations of test compounds of Formula (I) or DMSO vehicle in an Alphaplate (PerkinElmer GA, USA) and incubated for 1 hour at room temperature. 5 μL donor and acceptor bead mixture was then added with final concentrations of 7.5 μg/ml. 60 minutes after bead addition, Alpha signal was read on the Envision spectrometer (λEx 680 nm, λEm 520-620 nm). Final concentrations of bromodomain proteins and peptide are as shown below.\nAll data were normalized to the mean of 16 high and 16 low control wells on each plate. A four parameter curve fit of the following formula was then applied: Y=A+((B−A)/(1+((C/x)^D))) Where ‘A’ is the minimum, ‘B’ is the maximum, ‘C’ is the IC50 and ‘D’ is the Hill slope. Protein Expression and Purification\nRecombinant human CBP bromodomain (CBP-BD (1043-1159)) was expressed in E. coli cells (in a modified pET vector) with an N-terminal six-His tag and purified using a combination of both IMAC (Ni-affinity) and size exclusion chromatography steps.\nRecombinant CBP protein was expressed using the E. coli strain BL21-CodonPlus (DE3) (Agilent Technologies CA, USA). Cells were grown in Terrific Broth (TB) media to an OD600 of 0.92 at 37° C. at which temperature was reduced to 20° C., protein was induced with 1.0 mM isopropyl-β-D-thiogalactopyranoside (“IPTG”) for 20 hours and harvested by centrifugation at 8500×g for 20 minutes. Cells were re-suspended in 0.1M K2PO4 pH 8.0, 250 mM NaCl, 10% Glycerol, 0.75% NP-40, 25 mM Imidazole, with 0.2 mg/ml Lysozyme, 0.2 mM phenylmethanesulfonyl fluoride (“PMSF”), […] (“BME”), 25 μg/ml DNase I, incubated on ice for 30 minutes and lysed with a cell disruptor (MicroFluidics MA, USA). The lysate was clarified by centrifugation at 20,000×g for 1 hour. The protein was captured with Ni-NTA resin (Life Technologies, USA). Contaminating proteins were washed off with 40 mM HEPES pH 7.5, 500 mM NaCl, 5% Glycerol, 5 mM Imidazole, and 5 mM BME. Following 3× wash steps, protein was eluted using 400 mM Imidazole in 40 mM HEPES pH 7.5, 400 mM NaCl, and 5 mM BME. The protein was further purified using a size exclusion column (26/600 Superdex 200, GE Biosciences NJ, USA) in 40 mM HEPES pH 7.5, 250 mM NaCl, 5 mM BME. The protein was aliquoted and flash-frozen in liquid Nitrogen.", "units": {"IC50": "nM"}, "values": [
      {"compound": "COc1cc(C(=O)O)cc(OC)c1-c1cn([C@@H](C)c2ccccn2)c2cc(-c3c(C)noc3C)cnc12", "note": "[P-0146, (S)-4-(6-(3,5-dimethylisoxazol-4-yl)-1-(1-(pyridin-2-yl)ethyl)-1H-pyrrolo[3,2-b]pyridin-3-yl)-3,5-dimethoxybenzoic acid]", "IC50": "1000 to 8000"},
      {"compound": "Cc1noc(C)c1-c1cnc2c(CC3CC3)cn(-c3ccc(C(=O)O)cn3)c2c1", "note": "[P-0010, 6-(3-(cyclopropylmethyl)-6-(3,5-dimethylisoxazol-4-yl)-1H-pyrrolo[3,2-b]pyridin-1-yl)nicotinic acid]", "IC50": "0.1 to 1000"},
      {"compound": "Cc1noc(C)c1-c1cnc2c(c1)c(-c1c(OC(C)C)cc(C(=O)O)cc1OC(C)C)cn2[C@@H](C)c1ccccn1", "note": "[P-0118, (S)-4-(5-(3,5-dimethylisoxazol-4-yl)-1-(1-(pyridin-2-yl)ethyl)-1H-pyrrolo[2,3-b]pyridin-3-yl)-3,5-diisopropoxybenzoic acid]", "IC50": "0.1 to 1000"},
      {"compound": "Cc1noc(C)c1-c1cnc2c(C(=O)c3cccc(OC(F)F)c3)cn(-c3c(Cl)cc(C(=O)O)cc3Cl)c2c1", "note": "[P-0129, 3,5-dichloro-4-(3-(3-(difluoromethoxy)benzoyl)-6-(3,5-dimethylisoxazol-4-yl)-1H-pyrrolo[3,2-b]pyridin-1-yl)benzoic acid]", "IC50": "0.1 to 1000"},
      {"compound": "Cc1noc(C)c1-c1cnc2c(c1)c(-c1ccc(C(=O)O)cc1OCc1ccccc1)cn2[C@@H](C)c1ccccn1", "note": "[P-0139, (S)-3-(benzyloxy)-4-(5-(3,5-dimethylisoxazol-4-yl)-1-(1-(pyridin-2-yl)ethyl)-1H-pyrrolo[2,3-b]pyridin-3-yl)benzoic acid]", "IC50": "0.1 to 1000"},
      {"compound": "Cc1noc(C)c1-c1cnc2c(CC3CCC3)cn(-c3ccc(O)nc3)c2c1", "note": "[P-0143, 5-(3-(cyclobutylmethyl)-6-(3,5-dimethylisoxazol-4-yl)-1H-pyrrolo[3,2-b]pyridin-1-yl)pyridin-2-ol]", "IC50": "1000 to 8000"},
      {"compound": "CC[C@@H](c1ccccn1)n1cc(-c2cc(C(=O)O)ccc2Cl)c2ncc(-c3c(C)noc3C)cc21", "note": "[P-0148, (S)-4-chloro-3-(6-(3,5-dimethylisoxazol-4-yl)-1-(1-(pyridin-2-yl)propyl)-1H-pyrrolo[3,2-b]pyridin-3-yl)benzoic acid]", "IC50": "0.1 to 1000"},
      {"compound": "CCCOc1cc(C(=O)O)ccc1-c1cn([C@@H](C)c2ccccn2)c2ncc(-c3c(C)noc3C)cc12", "note": "[P-0113, (S)-4-(5-(3,5-dimethylisoxazol-4-yl)-1-(1-(pyridin-2-yl)ethyl)-1H-pyrrolo[2,3-b]pyridin-3-yl)-3-propoxybenzoic acid]", "IC50": "0.1 to 1000"},
      {"compound": "COc1cc(C(=O)O)ccc1-c1cn([C@@H](C)c2ccccn2)c2cc(-c3c(C)noc3C)cnc12", "note": "[P-0142, (S)-4-(6-(3,5-dimethylisoxazol-4-yl)-1-(1-(pyridin-2-yl)ethyl)-1H-pyrrolo[3,2-b]pyridin-3-yl)-3-methoxybenzoic acid]", "IC50": "0.1 to 1000"},
      {"compound": "Cc1noc(C)c1-c1cnc2c(c1)c(-c1ccc(C(=O)O)cc1OC(F)(F)F)cn2-c1ccccn1", "note": "[P-0158, 4-(5-(3,5-dimethylisoxazol-4-yl)-1-(pyridin-2-yl)-1H-pyrrolo[2,3-b]pyridin-3-yl)-3-(trifluoromethoxy)benzoic acid]", "IC50": "0.1 to 1000"},
      {"compound": "CCOc1cc(C(=O)O)cc(OCC)c1-n1cc(C(O)(C2CC2)C2CC2)c2ncc(-c3c(C)noc3C)cc21", "note": "[P-0165, 4-(3-(dicyclopropyl(hydroxy)methyl)-6-(3,5-dimethylisoxazol-4-yl)-1H-pyrrolo[3,2-b]pyridin-1-yl)-3,5-diethoxybenzoic acid]", "IC50": "0.1 to 1000"},
      {"compound": "Cc1noc(C)c1-c1cnc2c(Cc3cccc(Cl)c3)cn(-c3c(Cl)cc(C(=O)O)cc3Cl)c2c1", "note": "[P-0128, 3,5-dichloro-4-(3-(3-chlorobenzyl)-6-(3,5-dimethylisoxazol-4-yl)-1H-pyrrolo[3,2-b]pyridin-1-yl)benzoic acid]", "IC50": "0.1 to 1000"},
      {"compound": "Cc1noc(C)c1-c1cnc2c(-c3ccccc3C(=O)O)cn(C(C)c3ccccc3)c2c1", "note": "(stereo not drawn) [P-0120, 2-(6-(3,5-dimethylisoxazol-4-yl)-1-(1-phenylethyl)-1H-pyrrolo[3,2-b]pyridin-3-yl)benzoic acid]", "IC50": "1000 to 8000"},
      {"compound": "Cc1noc(C)c1-c1cnc2c(c1)c(-c1ccc(C(=O)O)cc1OCC(F)(F)F)cn2[C@@H](C)c1ccccn1", "note": "[P-0115, (S)-4-(5-(3,5-dimethylisoxazol-4-yl)-1-(1-(pyridin-2-yl)ethyl)-1H-pyrrolo[2,3-b]pyridin-3-yl)-3-(2,2,2-trifluoroethoxy)benzoic acid]", "IC50": "0.1 to 1000"},
      {"compound": "Cc1noc(C)c1-c1cnc2c(Cc3ccccn3)cn(-c3ccc(C(=O)O)cn3)c2c1", "note": "[P-0011, 6-(6-(3,5-dimethylisoxazol-4-yl)-3-(pyridin-2-ylmethyl)-1H-pyrrolo[3,2-b]pyridin-1-yl)nicotinic acid]", "IC50": "1000 to 8000"},
      {"compound": "Cc1noc(C)c1-c1cnc2c(-c3cc(C(=O)O)ccc3C#N)cn(C(C)(c3ccccn3)c3ccccn3)c2c1", "note": "[P-0166, 4-cyano-3-(1-(1,1-di(pyridin-2-yl)ethyl)-6-(3,5-dimethylisoxazol-4-yl)-1H-pyrrolo[3,2-b]pyridin-3-yl)benzoic acid]", "IC50": "0.1 to 1000"},
      {"compound": "Cc1noc(C)c1-c1cnc2c(-c3cccc(CC(=O)O)c3)c(C(F)(F)F)n([C@@H](C)c3ccccn3)c2c1", "note": "[P-0161, (S)-2-(3-(6-(3,5-dimethylisoxazol-4-yl)-1-(1-(pyridin-2-yl)ethyl)-2-(trifluoromethyl)-1H-pyrrolo[3,2-b]pyridin-3-yl)phenyl)acetic acid]", "IC50": "0.1 to 1000"},
      {"compound": "Cc1noc(C)c1-c1cnc2c(c1)c(-c1ccc(C(=O)O)cc1OC(C)C)cn2[C@@H](C)c1ccccn1", "note": "[P-0112, (S)-4-(5-(3,5-dimethylisoxazol-4-yl)-1-(1-(pyridin-2-yl)ethyl)-1H-pyrrolo[2,3-b]pyridin-3-yl)-3-isopropoxybenzoic acid]", "IC50": "0.1 to 1000"},
      {"compound": "Cc1noc(C)c1-c1cnc2c(-c3cccc(C(=O)O)c3)c(C(F)(F)F)n([C@@H](C)c3ccccn3)c2c1", "note": "[P-0162, (S)-3-(6-(3,5-dimethylisoxazol-4-yl)-1-(1-(pyridin-2-yl)ethyl)-2-(trifluoromethyl)-1H-pyrrolo[3,2-b]pyridin-3-yl)benzoic acid]", "IC50": "0.1 to 1000"},
      {"compound": "Cc1noc(C)c1-c1cnc2c(C(=O)c3cccc(OC(F)F)c3)cn(-c3ccnc(C(=O)O)c3)c2c1", "note": "[P-0099, 4-(3-(3-(difluoromethoxy)benzoyl)-6-(3,5-dimethylisoxazol-4-yl)-1H-pyrrolo[3,2-b]pyridin-1-yl)picolinic acid]", "IC50": "0.1 to 1000"},
      {"compound": "Cc1noc(C)c1-c1cnc2c(-c3ccccc3)cn(-c3c(Cl)cc(C(=O)O)cc3Cl)c2c1", "note": "[P-0150, 3,5-dichloro-4-(6-(3,5-dimethylisoxazol-4-yl)-3-phenyl-1H-pyrrolo[3,2-b]pyridin-1-yl)benzoic acid]", "IC50": "0.1 to 1000"},
      {"compound": "COc1ccc(C(=O)O)cc1-n1cc(CC2CCC2)c2ncc(-c3c(C)noc3C)cc21", "note": "[P-0098, 3-(3-(cyclobutylmethyl)-6-(3,5-dimethylisoxazol-4-yl)-1H-pyrrolo[3,2-b]pyridin-1-yl)-4-methoxybenzoic acid]", "IC50": "0.1 to 1000"},
      {"compound": "Cc1noc(C)c1-c1cnc2c(c1)c(-c1nccc(C(=O)O)n1)cn2[C@@H](C)c1ccccn1", "note": "[P-0107, (S)-2-(5-(3,5-dimethylisoxazol-4-yl)-1-(1-(pyridin-2-yl)ethyl)-1H-pyrrolo[2,3-b]pyridin-3-yl)pyrimidine-4-carboxylic acid]", "IC50": "1000 to 8000"},
      {"compound": "CCOc1cc(C(=O)O)cc(OCC)c1-n1cc(-c2ccccc2)c2ncc(-c3c(C)noc3C)cc21", "note": "[P-0168, 4-(6-(3,5-dimethylisoxazol-4-yl)-3-phenyl-1H-pyrrolo[3,2-b]pyridin-1-yl)-3,5-diethoxybenzoic acid]", "IC50": "0.1 to 1000"}
    ]}
  ]
}
